# Measurements published in US20080293820A1, “METHODS FOR IMPROVING PHYSICAL FUNCTION IN FIBROMYALGIA” (Cypress Bioscience, Inc., priority 2007, published 2008).
# Values joined by “and” are separate entries in the source; they are usually repeats but may differ in a detail not shown here. Equal entries are not always repeated. Structures can show the parent of a compound that is named as a salt.
# Columns and labels:
# [1] = system: patients who met the 1990 ACR criteria for fibromyalgia syndrome; experiment: Example 1: multi-center double-blind, randomized, placebo-controlled study of milnacipran for the treatment of fibromyalgia (888 patients); format: in vivo, human; set-up: Mean Change from Baseline in PFI SF-36 domain score / Mean Change from Baseline in PAIN SF-36 domain score / Mean Change from Baseline in GHP SF-36 domain score / Mean Change from Baseline in ROLP SF-36 domain score: scale not given here; settings: for responders for the treatment of the pain of fibromyalgia (pain composite), % = m/n: observed cases (OC), hydrochloride; for odds ratio of response / number of responders m (pain of fibromyalgia): OC; for Mean Change from Baseline in GHP SF-36 domain score / Mean Change from Baseline in PAIN SF-36 domain score / Mean Change from Baseline in PCS Score / Mean Change from Baseline in PFI SF-36 domain score / Mean Change from Baseline in ROLP SF-36 domain score: Observed Cohort
# Procedure: The primary outcome was a composite responder analysis assessing response rate at weeks 14 and 15, and the secondary analysis assessed response rate at weeks 26 and 27.
# This was a multi-center, randomized, double-blinded, placebo-controlled three-arm study, which enrolled 888 patients who met the 1990 ACR criteria for fibromyalgia syndrome as well as the more detailed admission criteria outlined in the protocol.
# Patients were randomized to receive either placebo, 100 mg/day milnacipran, or 200 mg/day milnacipran in a ratio of a 1:1:2. All randomized medications (placebo and milnacipran) were administered in a split-dose (BID) fashion. The doses were administered in a dose escalation regimen as outlined below:
# All patients were scheduled to receive a total of 24 weeks of milnacipran or placebo after the 3 weeks of dose escalation steps, for a total of 27 weeks of milnacipran or placebo exposure.
# The primary endpoint of this study was a composite responder analysis implementing analysis of three domains of interest, evaluated at […]. The domains measured were:
# 1) pain (measured by an electronic diary as a daily recall pain score, calculated to weekly average scores)
# 2) patient global (measured by the PGIC, 1-7 scale)
# 3) physical function (measured by the SF-36 PCS).
# For the primary analysis, the pain domain score was determined by a calculation that compared the average of treatment weeks 14 and 15 to the two baseline weeks, and treatment weeks 26 and 27 vs. baseline for the secondary analysis. The last observation was carried forward if neither the week 14 nor week 15 (or week 26/27) patient self-reported pain score is available to compare to the baseline value.
# A responder was defined as a subject who experienced a greater than 30% reduction in pain from baseline and improvement on the PGIC.
# At three months, the percentage of responders was: 35.44% (56/158) in the placebo group; 53.33% (72/135) (p=0.001) in the milnacipran 100 mg/day group; and 55.00% (143/260) (p<0.001) in the milnacipran 200 mg/day group. At six months, the percentage of responders was: 32.86% (46/140) in the placebo group; 49.59% (60/121) (p=0.002) in the milnacipran 100 mg/day group; and 51.74% (119/230) (p<0.001) in the milnacipran 200 mg/day group. See Table 1 for a summary of the results in the Intent-to-Treat Population and Table 2 for a summary of the Last Observation Carried Forward (LOCF), Baseline Observation Carried Forward (BOCF) and study completer (OC) populations. LOCF is an analysis in which observations are carried forward to the last time point for patients who dropped out. The LOCF analysis treats the carried-forward data as observed data at the last time point. BOCF is an analysis that requires the patient remain active in the trial to be evaluated for response. If a patient withdraws from the trial for any reason they are classed as a non-responder irregardless of their pain and global scores at the time of withdrawal.
# The following domains were used to evaluate the PCS score: physical function (PFI), role physical (ROLP), bodily pain (PAIN), general health profile (GHP), […] (VIT), social role (SOC), role emotional (ROLE) and mental health index (MHI). The PFI, ROLP, PAIN and GHP domains are positively weighted in the PCS calculation, and the VIT, SOC, ROLE and MHI domains are negatively weighted in the PCS calculation (Normative Value=50, SD=10).
# fibromyalgia patients = settings: cited from earlier work
# [2] = both milnacipran treatment groups (QD and BID), escalation to maximum 200 mg/day
smiles,measurement,setting,value
"CCN(CC)C(=O)C1(c2ccccc2)CC1CN (racemic) [milnacipran, Z-2-aminomethyl-1-phenyl-N,N-diethylcyclopropanecarboxamide hydrochloride]",physical function in patients with fibromyalgia compared to placebo (in words),[1]; 100 mg or 200 mg,surprisingly and effectively improves physical function
same,"responders for the treatment of the pain of fibromyalgia (pain composite), % = m/n","[1]; 100 mg/day, treatment weeks 14-15 (3 months)",53.33% and 53.3%
same,"responders for the treatment of the pain of fibromyalgia (pain composite), % = m/n","[1]; 100 mg/day, treatment weeks 14-15 (3 months), listed as Milnacipran",53.33%
same,"responders for the treatment of the pain of fibromyalgia (pain composite), % = m/n","[1]; 100 mg/day, treatment weeks 26-27 (6 months)",49.59% and 49.6%
same,"responders for the treatment of the pain of fibromyalgia (pain composite), % = m/n","[1]; 100 mg/day, treatment weeks 26-27 (6 months), listed as Milnacipran",49.59%
same,odds ratio of response,"[1]; 100 mg/day, weeks 14-15",2.10
same,number of responders m (pain of fibromyalgia),"[1]; 100 mg/day, weeks 14-15, n=135",72
same,odds ratio of response,"[1]; 100 mg/day, weeks 26-27",1.96
same,number of responders m (pain of fibromyalgia),"[1]; 100 mg/day, weeks 26-27, n=121",60
same,"Pain Composite responder rate, Sensitivity Analysis II","[1]; 100 mg, 3 month",32.%
same,"Pain Composite responder rate, Sensitivity Analysis III","[1]; 100 mg, 3 month",32.1%
same,"Pain Composite responder rate, Sensitivity Analysis I (BOCF)","[1]; 100 mg, 3 month",32.1%
same,Individual component responder rate: PGIC (LOCF),"[1]; 100 mg, 3 month",54.0%
same,Individual component responder rate: Pain (LOCF),"[1]; 100 mg, 3 month",35.7%
same,"Pain Composite responder rate, Primary Analysis (LOCF)","[1]; 100 mg, 3 month",33.5%
same,"Pain Composite responder rate, Sensitivity Analysis II","[1]; 100 mg, 6 month",27.2%
same,"Pain Composite responder rate, Sensitivity Analysis III","[1]; 100 mg, 6 month",29.5%
same,"Pain Composite responder rate, Sensitivity Analysis I (BOCF)","[1]; 100 mg, 6 month",26.8%
same,Individual component responder rate: PGIC (LOCF),"[1]; 100 mg, 6 month",49.6%
same,Individual component responder rate: Pain (LOCF),"[1]; 100 mg, 6 month",35.7%
same,"Pain Composite responder rate, Primary Analysis (LOCF)","[1]; 100 mg, 6 month",30.8%
same,Mean Change from Baseline in GHP SF-36 domain score,"[1]; 100 mg, Tx 3",5.9
same,Mean Change from Baseline in PAIN SF-36 domain score,"[1]; 100 mg, Tx 3",11.8
same,Mean Change from Baseline in PCS Score,"[1]; 100 mg, Tx 3",3.6
same,Mean Change from Baseline in PFI SF-36 domain score,"[1]; 100 mg, Tx 3",6.4
same,Mean Change from Baseline in ROLP SF-36 domain score,"[1]; 100 mg, Tx 3",12.3
same,Mean Change from Baseline in GHP SF-36 domain score,"[1]; 100 mg, Tx 7",6.3
same,Mean Change from Baseline in PAIN SF-36 domain score,"[1]; 100 mg, Tx 7",15.0
same,Mean Change from Baseline in PCS Score,"[1]; 100 mg, Tx 7",4.6
same,Mean Change from Baseline in PFI SF-36 domain score,"[1]; 100 mg, Tx 7",7.6
same,Mean Change from Baseline in ROLP SF-36 domain score,"[1]; 100 mg, Tx 7",16.4
same,Mean Change from Baseline in GHP SF-36 domain score,"[1]; 100 mg, Tx 11",8.1
same,Mean Change from Baseline in PAIN SF-36 domain score,"[1]; 100 mg, Tx 11",19.4
same,Mean Change from Baseline in PCS Score,"[1]; 100 mg, Tx 11",5.9
same,Mean Change from Baseline in PFI SF-36 domain score,"[1]; 100 mg, Tx 11",10.6
same,Mean Change from Baseline in ROLP SF-36 domain score,"[1]; 100 mg, Tx 11",18.6
same,Mean Change from Baseline in GHP SF-36 domain score,"[1]; 100 mg, Tx 15",7.8
same,Mean Change from Baseline in PAIN SF-36 domain score,"[1]; 100 mg, Tx 15",18.1
same,Mean Change from Baseline in PCS Score,"[1]; 100 mg, Tx 15",6.2
same,Mean Change from Baseline in PFI SF-36 domain score,"[1]; 100 mg, Tx 15",11.4
same,Mean Change from Baseline in ROLP SF-36 domain score,"[1]; 100 mg, Tx 15",19.3
same,"responders for the treatment of the pain of fibromyalgia (pain composite), % = m/n","[1]; 200 mg/day, treatment weeks 14-15 (3 months)",55.0%
same,"responders for the treatment of the pain of fibromyalgia (pain composite), % = m/n","[1]; 200 mg/day, treatment weeks 14-15 (3 months), listed as Milnacipran",55.00%
same,"responders for the treatment of the pain of fibromyalgia (pain composite), % = m/n","[1]; 200 mg/day, treatment weeks 26-27 (6 months)",51.74% and 51.7%
same,"responders for the treatment of the pain of fibromyalgia (pain composite), % = m/n","[1]; 200 mg/day, treatment weeks 26-27 (6 months), listed as Milnacipran",51.74%
same,odds ratio of response,"[1]; 200 mg/day, weeks 14-15",2.20
same,number of responders m (pain of fibromyalgia),"[1]; 200 mg/day, weeks 14-15, n=260",143
same,odds ratio of response,"[1]; 200 mg/day, weeks 26-27",2.20
same,number of responders m (pain of fibromyalgia),"[1]; 200 mg/day, weeks 26-27, n=230",119
same,"Pain Composite responder rate, Sensitivity Analysis II","[1]; 200 mg, 3 month",32.7%
same,"Pain Composite responder rate, Sensitivity Analysis III","[1]; 200 mg, 3 month",32.4%
same,"Pain Composite responder rate, Sensitivity Analysis I (BOCF)","[1]; 200 mg, 3 month",32.4%
same,Individual component responder rate: PGIC (LOCF),"[1]; 200 mg, 3 month",50.6%
same,Individual component responder rate: Pain (LOCF),"[1]; 200 mg, 3 month",38.3%
same,"Pain Composite responder rate, Primary Analysis (LOCF)","[1]; 200 mg, 3 month",34.9%
same,"Pain Composite responder rate, Sensitivity Analysis II","[1]; 200 mg, 6 month",28.6%
same,"Pain Composite responder rate, Sensitivity Analysis III","[1]; 200 mg, 6 month",29.9%
same,"Pain Composite responder rate, Sensitivity Analysis I (BOCF)","[1]; 200 mg, 6 month",27.0%
same,Individual component responder rate: PGIC (LOCF),"[1]; 200 mg, 6 month",49.9%
same,Individual component responder rate: Pain (LOCF),"[1]; 200 mg, 6 month",35.4%
same,"Pain Composite responder rate, Primary Analysis (LOCF)","[1]; 200 mg, 6 month",32.2%
same,Mean Change from Baseline in GHP SF-36 domain score,"[1]; 200 mg, Tx 3",6.0
same,Mean Change from Baseline in PAIN SF-36 domain score,"[1]; 200 mg, Tx 3",12.5
same,Mean Change from Baseline in PCS Score,"[1]; 200 mg, Tx 3",3.6
same,Mean Change from Baseline in PFI SF-36 domain score,"[1]; 200 mg, Tx 3",8.2
same,Mean Change from Baseline in ROLP SF-36 domain score,"[1]; 200 mg, Tx 3",13.0
same,Mean Change from Baseline in GHP SF-36 domain score,"[1]; 200 mg, Tx 7",8.5
same,Mean Change from Baseline in PAIN SF-36 domain score,"[1]; 200 mg, Tx 7",18.6
same,Mean Change from Baseline in PCS Score,"[1]; 200 mg, Tx 7",5.9
same,Mean Change from Baseline in PFI SF-36 domain score,"[1]; 200 mg, Tx 7",11.0
same,Mean Change from Baseline in ROLP SF-36 domain score,"[1]; 200 mg, Tx 7",19.0
same,Mean Change from Baseline in GHP SF-36 domain score,"[1]; 200 mg, Tx 11",7.7
same,Mean Change from Baseline in PAIN SF-36 domain score,"[1]; 200 mg, Tx 11",16.8
same,Mean Change from Baseline in PCS Score,"[1]; 200 mg, Tx 11",5.6
same,Mean Change from Baseline in PFI SF-36 domain score,"[1]; 200 mg, Tx 11",10.7
same,Mean Change from Baseline in ROLP SF-36 domain score,"[1]; 200 mg, Tx 11",18.4
same,Mean Change from Baseline in GHP SF-36 domain score,"[1]; 200 mg, Tx 15",8.2
same,Mean Change from Baseline in PAIN SF-36 domain score,"[1]; 200 mg, Tx 15",19.3
same,Mean Change from Baseline in PCS Score,"[1]; 200 mg, Tx 15",6.1
same,Mean Change from Baseline in PFI SF-36 domain score,"[1]; 200 mg, Tx 15",11.9
same,Mean Change from Baseline in ROLP SF-36 domain score,"[1]; 200 mg, Tx 15",19.9
same,effect on the symptom of pain in FMS (in words),fibromyalgia patients; 100 mg BID,effective acute (short-term) therapy
same,PGIC: completers who reported an improvement in their overall status,fibromyalgia patients; [2],over 70%
same,PGIC: completers who reported worsening,fibromyalgia patients; [2],10%
